In one assay the test system is PC-3. The experiment in a line: cells. To be noted: Homo sapiens, PC-3, 72 h.
Another assay addresses T1, Beta-glucuronidase (Homo sapiens, UniProt P08236).
T1 sequence (P08236 whole entry): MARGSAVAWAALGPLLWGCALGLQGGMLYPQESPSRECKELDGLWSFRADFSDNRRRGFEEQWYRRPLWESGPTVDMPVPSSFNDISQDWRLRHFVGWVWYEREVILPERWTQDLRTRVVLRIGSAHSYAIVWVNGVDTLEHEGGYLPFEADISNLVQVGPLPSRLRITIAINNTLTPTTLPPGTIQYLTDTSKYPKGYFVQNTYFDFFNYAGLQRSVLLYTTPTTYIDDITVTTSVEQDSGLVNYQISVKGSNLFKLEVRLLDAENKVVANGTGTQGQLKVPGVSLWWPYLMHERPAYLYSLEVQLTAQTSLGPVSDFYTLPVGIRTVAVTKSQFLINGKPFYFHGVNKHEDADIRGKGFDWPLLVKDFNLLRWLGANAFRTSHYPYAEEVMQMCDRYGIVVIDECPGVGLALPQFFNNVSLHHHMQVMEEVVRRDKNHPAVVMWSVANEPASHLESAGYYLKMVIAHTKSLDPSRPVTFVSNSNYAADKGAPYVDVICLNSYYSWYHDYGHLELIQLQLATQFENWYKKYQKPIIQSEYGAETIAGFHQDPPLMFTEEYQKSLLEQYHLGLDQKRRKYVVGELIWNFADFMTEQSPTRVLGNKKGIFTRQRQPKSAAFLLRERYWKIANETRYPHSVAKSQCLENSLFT
As to the kind of experiment: Inhibition of beta-glucuronidase activity (unknown origin) assessed as p-nitrophenol formation after 30 mins using p-nitrophenyl-beta-D-glucuronide as substrate by spectrophotometry.

For 24 molecules, IC50 results are on record in ChEMBL document CHEMBL3286100, “Synthesis and β-glucuronidase inhibitory activity of 2-arylquinazolin-4(3H)-ones” (Bioorg Med Chem, 2014).

Description for PC-3: Cytotoxicity against human PC3 cells after 72 hrs by MTT assay

A word on the IC50: it is the concentration that inhibits the measured activity by half. The molecule `COc1ccc(-c2nc(O)c3ccccc3n2)cc1OC` displayed an IC50 in the assay on PC-3 greater than 30 µM.

With `CN(C)c1ccc(-c2nc(O)c3ccccc3n2)cc1`, the IC50 with PC-3 was greater than 30 µM; at Beta-glucuronidase it was 5.5 µM.

Regarding `CCOc1ccc(-c2nc3ccccc3c(=O)[nH]2)cc1`, the IC50 in the assay with PC-3 was greater than 30 µM.

The molecule `O=c1[nH]c(-c2ccc(Cl)cc2)nc2ccccc12` had a half-inhibitory concentration (IC50) in the assay on PC-3 greater than 30 µM.

In the assay on PC-3, `O=c1[nH]c(-c2c(Cl)cccc2Cl)nc2ccccc12` displayed an IC50 greater than 30 µM.

`O=c1[nH]c(-c2ccccc2[N+](=O)[O-])nc2ccccc12`: the IC50 in the assay with PC-3 is greater than 30 µM.

As for `O=c1[nH]c(-c2ccc(Cl)cc2Cl)nc2ccccc12`, in the assay with PC-3, the IC50 was greater than 30 µM.

In the case of `CCOc1cc(-c2nc3ccccc3c(=O)[nH]2)ccc1O`, the IC50 in the assay on PC-3 is greater than 30 µM.

Turning to `O=c1[nH]c(-c2cccc([N+](=O)[O-])c2)nc2ccccc12`, the IC50 in the assay with PC-3 is greater than 30 µM; at Beta-glucuronidase, 50.4 µM.

As to `COc1cc(-c2nc3ccccc3c(=O)[nH]2)cc(OC)c1OC`, the IC50 was greater than 30 µM with PC-3 and 120 µM at Beta-glucuronidase.

`O=c1[nH]c(-c2ccccc2Cl)nc2ccccc12`: the IC50 with PC-3 was greater than 30 µM.

For `O=c1[nH]c(-c2ccc(O)cc2)nc2ccccc12`, the IC50 in the assay on PC-3 was greater than 30 µM; on Beta-glucuronidase, 22.2 µM.

In the case of `O=c1[nH]c(-c2c(O)cccc2Br)nc2ccccc12`, the IC50 in the assay with PC-3 was greater than 30 µM.

As to `COc1ccc(-c2nc3ccccc3c(=O)[nH]2)cc1`, the IC50 with PC-3 is greater than 30 µM; at Beta-glucuronidase, 1.1 µM.

Take `O=c1[nH]c(-c2cccc(O)c2)nc2ccccc12`: the IC50 with PC-3 is greater than 30 µM; on Beta-glucuronidase, 198 µM.

With `O=c1[nH]c(-c2cc(O)ccc2O)nc2ccccc12`, in the assay with PC-3, the IC50 was greater than 30 µM.

The molecule `O=c1[nH]c(-c2ccc(O)c(O)c2)nc2ccccc12` displayed an IC50 in the assay with PC-3 greater than 30 µM.

Regarding `O=c1[nH]c(-c2ccccc2O)nc2ccccc12`, the IC50 with PC-3 was greater than 30 µM; at Beta-glucuronidase, 10 µM.

For `Cc1ccc(-c2nc3ccccc3c(=O)[nH]2)cc1`, the IC50 with PC-3 was greater than 30 µM; on Beta-glucuronidase it was 173 µM.

In the assay on PC-3, `COc1ccc(O)c(-c2nc3ccccc3c(=O)[nH]2)c1` returned an IC50 greater than 30 µM.

The molecule `COc1cccc(-c2nc3ccccc3c(=O)[nH]2)c1O` had an IC50 in the assay with PC-3 greater than 30 µM.

Regarding `CCOc1ccccc1-c1nc2ccccc2c(=O)[nH]1`, the IC50 with PC-3 is greater than 30 µM.

As to `COc1ccc(-c2nc3ccccc3c(=O)[nH]2)cc1O`, the IC50 with PC-3 was greater than 30 µM; at Beta-glucuronidase it was 2.8 µM.

Consider `O=c1[nH]c(-c2ccc([N+](=O)[O-])cc2)nc2ccccc12`, for which the values for the IC50 in the assay on PC-3 and at Beta-glucuronidase were greater than 30 µM and 20.1 µM, respectively.
